Reference: patent publication US6632946B2, “Tetracyclic analogues of camptothecins, their preparation processes, their use as medicaments and the pharmaceutical compositions containing them” (Societe de Conseils de Recherches et d'Applications …, priority 1997, dated 2003)
Read-outs that look alike come from different tables or passages of the source.

Columns and labels:
[1] = target: T1, calf thymus topoisomerase I (Bos taurus, UniProt F1MN93); conditions: for PERCENTAGE OF RELAXED DNA: relaxed DNA with respect to total DNA, pUC 19, 37° C. 15 min
T1 sequence (F1MN93 1-767): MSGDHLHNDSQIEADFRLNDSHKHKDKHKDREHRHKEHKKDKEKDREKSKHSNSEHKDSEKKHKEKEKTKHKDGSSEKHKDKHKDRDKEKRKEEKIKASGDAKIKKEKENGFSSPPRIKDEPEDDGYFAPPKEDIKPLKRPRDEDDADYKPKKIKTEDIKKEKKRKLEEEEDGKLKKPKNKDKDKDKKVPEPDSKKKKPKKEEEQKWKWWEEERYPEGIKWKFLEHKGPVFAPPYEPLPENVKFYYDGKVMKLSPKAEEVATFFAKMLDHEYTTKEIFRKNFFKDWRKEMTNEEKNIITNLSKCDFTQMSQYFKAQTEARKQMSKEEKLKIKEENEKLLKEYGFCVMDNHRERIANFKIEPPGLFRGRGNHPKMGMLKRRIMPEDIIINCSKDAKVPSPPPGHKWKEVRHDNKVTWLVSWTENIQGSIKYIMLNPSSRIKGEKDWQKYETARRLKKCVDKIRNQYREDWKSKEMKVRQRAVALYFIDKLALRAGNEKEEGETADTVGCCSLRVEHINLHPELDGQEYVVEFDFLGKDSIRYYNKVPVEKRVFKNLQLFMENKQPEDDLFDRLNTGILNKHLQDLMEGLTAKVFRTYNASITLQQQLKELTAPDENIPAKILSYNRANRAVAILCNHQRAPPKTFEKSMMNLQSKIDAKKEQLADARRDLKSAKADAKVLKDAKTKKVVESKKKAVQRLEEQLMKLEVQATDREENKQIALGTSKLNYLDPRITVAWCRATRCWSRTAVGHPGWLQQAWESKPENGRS
Procedure: 1. Inhibition test of the relaxation of supercoiled DNA induced by topoisomerase I.
Supercoiled plasmidic DNA (pUC 19, Pharmacia Biotech, Orsay, France, 300 ng) is incubated at 37° C. for 15 min in the presence of calf thymus topoisomerase I (Gibco-BRL, Paisley, United Kingdom, 1 unit) in 20 μl of reaction buffer (Tris-HCl pH 7.5:50 mM, KCl: 50 mM, DTT: 0.5 mM, MgCl2: 10 mM, EDTA: 0.1 mM, bovine serum albumin: 0.030 mg/ml) and of a potentiel inhibitor (prepared in a 50 mM extemporaneous solution in dimethylsulphoxide, then diluted with distilled water in order to obtain a final concentration of 500 μM, 200 μM, 100 μM or 10 μM, not exceeding 1% of dimethylsulphoxide). The reaction is stopped by the addition of 3 μl of a denaturing solution (proteinase K: 500 μg/ml, sodium dodecylsulphate: 1%, EDTA: 20 mM) followed by incubation at 37° C. for 30 min, then 2 μl of a loading buffer (bromophenol blue: 0.3%, sodium hydrogen phosphate: 10 mM, polysucrose Ficoll®-400: 16%) are added and the sample is placed on a 1.2% agarose gel (Sea-Kem-GTG, FMC Bioproducts/Tebu, Perray-en-Yvelines, France) containing 2 μg/ml of chloroquine. The electrophoretic migration is carried out at a voltage of 1V/cm for 20 hours, with recirculation of the electrophoresis buffer (Tris-HCl: 36 mM, sodium dihydrogen phosphate: 30 mM, EDTA: 1 mM). The gel is then stained under agitation with 2 μg/ml ethidium bromide, then photographed under ultraviolet light at 312 nm (CCD camera Vilber-Lourmat, Lyon, France). Densitometric analysis (BioProfil image analyzer Vilber-Lourmat, Lyon, France) allows the percentage of relaxed DNA with respect to total DNA to be expressed, at the chosen concentration of inhibitor.

topoisomerase II = conditions: for PERCENTAGE OF RELAXED DNA: relaxed DNA with respect to total DNA, pUC 19, 37° C. 15 min
Procedure: 2. Inhibition test of the relaxation of supercoiled DNA induced by topoisomerase II.
Supercoiled plasmidic DNA (pUC 19, Pharmacia Biotech, Orsay, France, 300 ng) is incubated at 37° C. for 15 min in the presence of calf thymus […] (Gibco-BRL, Paisley, United Kingdom, 7 units) in 20 μl of reaction buffer (Tris-HCl pH 7.9: 10 mM, KCl: 50 mM, NaCl: 50 mM, MgCl2: 5 mM, ATP: 1 mM, EDTA: […], bovine serum albumin: 15 mg/ml) and of a potential inhibitor (prepared in a 50 mM extemporaneous solution in dimethylsulphoxide, then diluted with distilled water in order to obtain a final concentration of 500 μM, 200 μM, 100 μM or 10 μM, not exceeding 1% of dimethylsulphoxide). The reaction is stopped by the addition of 3 μl of a denaturing solution (proteinase K: 500 μg/ml, sodium dodecylsulphate: 1%, EDTA: 20 mM) followed by incubation at 37° C. for 30 min, then 2 μl of a loading buffer (bromophenol blue: 0.3%, sodium hydrogen phosphate: 10 mM, polysucrose Ficoll®-400: 16%) are added and the sample is placed on a 1.2% agarose gel (Sea-Kem-GTG, FMC Bioproducts/Tebu, Perray-en-Yvelines, France) containing 2 μg/ml of chloroquine. The electrophoretic migration is carried out at a voltage of 1V/cm for 20 hours, with recirculation of the electophoresis buffer (Tris-HCl: 36 mM, sodium dihydrogen phosphate: 30 mM, EDTA: 1 mM). The gel is then stained under agitation with 2 μg/ml ethidium bromide, then photographed under ultraviolet light at 312 nm (CCD camera Vilber-Lourmat, Lyon, France). Densitometric analysis (BioProfil image analyzer Vilber-Lourmat, Lyon, France) allows the percentage of relaxed DNA with respect to the total DNA to be expressed, at the chosen concentration of inhibitor.

[2] = at concentrations greater than 10 μM

Structure (SMILES) | PERCENTAGE OF RELAXED DNA ([1]; inhibitor concentration 10 μM) [%] | PERCENTAGE OF RELAXED DNA ([1]; inhibitor concentration 100 μM) [%] | PERCENTAGE OF RELAXED DNA ([1]; inhibitor concentration 200 μM) [%] | PERCENTAGE OF RELAXED DNA ([1]; inhibitor concentration 500 μM) [%] | PERCENTAGE OF RELAXED DNA (topoisomerase II; inhibitor concentration 10 μM) [%] | PERCENTAGE OF RELAXED DNA (topoisomerase II; inhibitor concentration 100 μM) [%] | PERCENTAGE OF RELAXED DNA (topoisomerase II; inhibitor concentration 200 μM) [%] | PERCENTAGE OF RELAXED DNA (topoisomerase II; inhibitor concentration 500 μM) [%] | inhibition of topoisomerase I compared with camptothecin [1, 2] | inhibition of topoisomerase II compared with etoposide (topoisomerase II; [2])
CC[C@@]1(O)C(=O)OCc2c1cc1n(c2=O)Cc2cc3ccccc3nc2-1 [Camptothecin] | 95.5 ± 1.4 | 64.2 ± 6.1 | 60.6 ± 12.0 | 55.6 ± 8.8 |  |  |  |  |  | 
COc1cc([C@@H]2c3cc4c(cc3[C@@H](O[C@@H]3O[C@@H]5CO[C@@H](C)O[C@H]5[C@H](O)[C@H]3O)[C@H]3COC(=O)[C@H]23)OCO4)cc(OC)c1O [Etoposide, reference compound] |  |  |  |  | 92.6 ± 2.5 | 28.5 ± 2.2 | 18.6 ± 1.4 | 12.0 ± 0.8 |  | 
CCC(O)(CC(=O)O)c1cc2n(c(=O)c1)Cc1cc3ccccc3nc1-2 (stereo not drawn) [Example 6, 3-Hydroxy-3-(4-oxo-4,6-dihydroindolizino[1,2-b]quinoline-2-yl)pentanoic Acid] | 95.2 ± 2.8 | 28.5 ± 3.5 | 15.5 ± 3.6 | 10.3 ± 2.8 | 98.8 ± 0.4 | 9.9 ± 0.7 | 11.5 ± 1.9 | 6.5 ± 1.0 | better inhibitor of topoisomerase I than camptothecin | better inhibitor of topoisomerase II than etoposide
